{"source": "patent US20240041976A1", "about": "“COMPOSITION AND USE” (priority 2020, published 2024)", "key": {"MRSA ATCC 33591": {"system": "MRSA ATCC 33591", "experiment": "microbe, parasite or virus in culture", "assay_type": "cell-based, Staphylococcus aureus", "settings": "Staphylococcus aureus, 24 h, read-out: MIC, single antimicrobial", "description": "(§1) Antimicrobial activity was measured using the AAMP assay (Wiegand et al., 2008, Nat. Protoc., Vol. 3(2), p 163-175).\n(§2) Synergy testing was done with a microtiter plate checkerboard assay as previously described (Orhan et al., 2005, J. Clin. Microbiol., Vol. 43(1), p 140-143). Briefly, equal amounts of antimicrobial A were applied on microtiter plate 1 in wells A1-H1 and then diluted two-fold to wells 2-12. Similarly, equal amounts of antimicrobial B were applied on microtiter plate 2 in wells A1-A12 and diluted two-fold in wells B-H. Volumes of 50 μl of antimicrobial A from each well of microtiter plate 1 were transferred into microtiter plate 3, except for wells H1-H12. Similarly, the same volumes were transferred from microtiter plate 2 into plate 3, except for wells A1-A8. A 100 μl volume of 25 times diluted ON bacterial culture of MRSA was transferred into each well of plate 3. A 50 μl volume of pure broth was added into each well in lines H1-H12 and A1-A8 which were used to estimate MIC values of pure substances (blank).\n(§3) Antimicrobial activity was measured using the AAMP assay as described in Example 2.\n(§4) Synergy testing was performed as in Example 2."}, "E. faecium LMGT 3104": {"system": "E. faecium LMGT 3104", "experiment": "microbe, parasite or virus in culture", "assay_type": "cell-based, Enterococcus faecium", "settings": "Enterococcus faecium, LMGT3104, read-out: MIC, single antimicrobial", "description": "as §1, §2, §3, §4"}, "E. faecalis 3351": {"system": "E. faecalis 3351", "experiment": "microbe, parasite or virus in culture", "assay_type": "cell-based, Enterococcus faecalis", "description": "as §1, §2, §3, §4"}, "E.faecalis 3689": {"system": "E.faecalis 3689", "experiment": "microbe, parasite or virus in culture", "assay_type": "cell-based, Enterococcus faecalis", "description": "as §1, §2, §3, §4"}, "[1]": {"system": "S. pseudintermedius MRSP 45", "experiment": "microbe, parasite or virus in culture", "assay_type": "cell-based, Staphylococcus pseudintermedius", "settings": "Staphylococcus pseudintermedius, MRSP45, MRSP 45, 24 h, read-out: MIC, single component", "description": "as §1, §2, §3, §4"}, "[2]": {"system": "S. aureus biofilms (six strains)", "experiment": "BOAT, summary over strains", "assay_type": "cell-based, Staphylococcus aureus", "description": "The BOAT assay was performed as described previously (Gronseth et al., 2017, Int. J. Pediatr. Otorhinolaryngol., Vol. 103, p 58-64) with some modifications. The serial dilutions of the antimicrobials were prepared in challenge plates as follows: 175 μl of TSB were transferred in each row of a 96-well microtiter plate, except for the first row, according to the number of microbial strains to treat. In the first row of the plate, the antimicrobials were diluted to their respective working concentrations in a final volume of 350 μl of TSB. From the first row, 175 μl of the antimicrobial dilutions were then transferred to the second row of the plate and further serially diluted to the bottom of the plate. The same procedure was followed to prepare the controls, except that instead of the antimicrobials an equivalent volume of the respective vehicles were used. […] The results were then assessed by monitoring the development (or not) of red formazan (red colour), denoting the retention of metabolic activity by bacterial cells (Moussa et al., 2013, J. Mycol., Vol. 2013; Perez et al., 2010, Lett. Appl. Microbiol., Vol. 51, p 331-337). […] The amount of extracted dye, reflecting the degree of bacterial cell metabolic activity, was then quantified by spectrophotometric readings at 492 nm."}, "[3]": {"system": "Methicillin-Resistant Staphylococcus aureus", "assay_type": "in vivo, mice", "settings": "repeat on larger groups; data not shown", "description": "The experiment was performed essentially as set out in Example 2, except that the following regimes as described below, were used.\n50-70 μl of cream was applied per wound.\nTreatment was daily for 4 days.\nThe rifampicin/MP1 experiment was repeated on a larger group of mice in each category (8 mice for each of rifampicin, MP1, rifampicin+MP1, 8 mice with APO base cream 30% as used for rifampicin and MP1, 7 mice untreated). Seven mice were also treated with fucidin cream (2% fusidic acid in a cream base) as a positive control."}, "[4]": {"system": "S. haemolyticus strains 4068-4073", "experiment": "microbe, parasite or virus in culture", "assay_type": "cell-based", "settings": "5 hour incubation", "description": "Bacteriocins and antimicrobial assays. K1-EJ and garvicin KS peptides (Gak-A, -B and -C) were synthesized by Pepmic Co., Ltd, China, with >95% purity. These bacteriocins were all solubilized in 0.1% (vol/vol) trifluoracetic acid (TFA; Sigma-Aldrich). Micrococcin P1 was purchased from Cayman Chemical, Michigan, USA with 95% purity and solubilized in a 50% (v/v) mixture of isopropanol (Merck) […] (Sigma-Aldrich) at a stock concentration of 1 mg/ml. Cell growth inhibition assays and antimicrobial synergy determination was performed in line with Example 1.\nTo investigate whether there was synergy between the three bacteriocins (K1-EJ, GarKS and MP1), a checkboard antimicrobial assay was performed. The selected strains were treated for 5, 24 and 48 h with a range of concentrations of K1-EJ, GarKS and MP1 alone or in different combinations. […] Double combinatorial treatments (GarKS/MP1; K1-EJ/GarKS; K1-EJ/MP1) increased the antimicrobial activity of the bacteriocins. […] This was particularly evident at the 24 and 48 h time-points."}}, "note": "Like-named read-outs stand apart in the source and are kept apart here. No end group written: not given here.", "data": [{"compound": "C/C=C(\\NC(=O)c1csc(-c2csc(-c3ccc4c(n3)-c3csc(n3)[C@H]([C@@H](C)O)NC(=O)c3csc(n3)[C@H](C(C)C)NC(=O)c3csc(n3)/C(=C/C)NC(=O)[C@H]([C@@H](C)O)NC(=O)c3csc-4n3)n2)n1)C(=O)NC[C@@H](C)O", "note": "[MP1, micrococcin P1]", "values": [{"measurement": "MIC", "setting": "MRSA ATCC 33591", "value": 2.5, "unit": "µg/mL"}, {"measurement": "MIC", "setting": "E. faecium LMGT 3104", "value": 2.5, "unit": "µg/mL"}, {"measurement": "MIC", "setting": "E. faecalis 3351; Enterococcus faecalis, E. faecalis 3351, read-out: MIC, single antimicrobial", "value": "> 45", "unit": "µg/mL"}, {"measurement": "MIC", "setting": "E.faecalis 3689; Enterococcus faecalis, E.faecalis 3689, read-out: MIC, single antimicrobial", "value": "> 45", "unit": "µg/mL"}, {"measurement": "MIC", "setting": "[1]; Table 8", "value": "> 2.5", "unit": "µg/mL"}, {"measurement": "effect on biofilm-associated metabolic activity (BOAT)", "setting": "[2]; six strains, up to 5 mg/ml garvicin KS, 0.1 mg/ml micrococcin P1", "value": "ineffective against all the strains"}, {"measurement": "increase in resistance compared to the planktonic state", "setting": "[2]; some of the biofilm producers", "value": "over 160 fold"}, {"measurement": "antimicrobial effect in the mouse skin wound model", "setting": "[3]", "value": "Neither MP1 nor the cream base showed any antimicrobial effect"}, {"measurement": "MIC50", "setting": "[4]; Staphylococcus haemolyticus, STRAINS40684073, read-out: MIC50 values over strains", "value": "0.02 to 0.15", "unit": "µg/mL"}]}, {"compound": "CC1(C)S[C@@H]2[C@H](NC(=O)Cc3ccccc3)C(=O)N2[C@H]1C(=O)O", "note": "[Penicillin G]", "values": [{"measurement": "MIC", "setting": "[1]; Table 9", "value": "> 125", "unit": "µg/mL"}]}, {"compound": "MKFKFNPTGTIVKKLTQYEINWYKQQYGRYPWERPVA [Hybrid K1-EJ]", "values": [{"measurement": "MIC, single antimicrobial", "setting": "E. faecalis 3351; 3351", "value": ">25", "unit": "µg/mL"}, {"measurement": "MIC of MP1 in comb. with the labelled antimicrobial", "setting": "E. faecalis 3351; E. faecalis 3351", "value": 5.6, "unit": "µg/mL"}, {"measurement": "MIC of the labelled antimicrobial in comb. with MP1", "setting": "E. faecalis 3351; E. faecalis 3351", "value": 3, "unit": "µg/mL"}, {"measurement": "MIC, single antimicrobial", "setting": "E.faecalis 3689; 3689", "value": ">25", "unit": "µg/mL"}, {"measurement": "MIC of MP1 in comb. with the labelled antimicrobial", "setting": "E.faecalis 3689; E.faecalis 3689", "value": 3, "unit": "µg/mL"}, {"measurement": "MIC of the labelled antimicrobial in comb. with MP1", "setting": "E.faecalis 3689; E.faecalis 3689", "value": 1.5, "unit": "µg/mL"}, {"measurement": "MIC50 values over strains", "setting": "[4]", "value": 0.78, "unit": "µg/mL"}]}]}
